The test concerns HBV. Briefly: In-vitro anti-HBV activity in stable HBV-producing cell line (HepG2.2.15), HBV DNA in culture fluid by qPCR. The following applies: Hepatitis B virus, 168 h; HepG2.2.15 cells, HBV DNA in culture media on day 7, qPCR. In kind it is cell-based. On the procedure: Specific procedures are as follows:
HepG2.2.15 cells were seeded into each well of 96-well plates, 40,000 cells per well. Cells were treated with cell culture medium containing compounds with different concentrations 24 hours after cell seeding. The final concentration of each compound was 16.4 μM in each well and each compound was diluted to desired concentration using 3-fold gradient dilution protocol, 9 diluted points in duplicate. The culture mediums containing the compounds were refreshed on day 4 post cell seeding. Culture media were collected from the HepG2.2.15 plates on day 7 post cell seeding followed by HBV DNA extraction.
HBV DNA extraction: The HBV DNA extraction was performed using QIAamp 96 DNA Blood Kit (QIAGEN 51161).
PCR for quantification: PCR mix was prepared according to PCR system. PCR mix was dispensed to 96-well optical reaction plates (special for quantification). The standard diluted proportionally was added. Then the sample was added; The plates were sealed with optical adhesive film; PCR system was performed according to programs.
Percentage of HBV inhibition of DNA replication by compound was calculated using the following equation: % Inh.=[1-HBV DNA quantity of sample/HBV DNA quantity of DMSO control]*100.
Calculating EC50 value of compounds to HBV replication: the EC50 values were calculated based on “four-parameter logistic equation” and using GraphPad Prism 5 analysis software.
For orientation: In qPCR the cycle at which signal appears reflects the starting amount.

Consider `COC(=O)C1=C(CN2CC(F)(F)C[C@@H]2CCC(=O)O)NC(c2nccs2)=N[C@H]1c1ccc(F)cc1Br` [Example 18, 3-((S)-1-(((R)-6-(2-bromo-4-fluorophenyl)-5-(methoxycarbonyl)-2-(thiazol-2-yl)-3,6-dihydropyrimidin-4-yl)methyl)-4,4-difluoropyrrolidin-2-yl)propanoic acid], for which the EC50 amounted to 14 nM.
For `CCOC(=O)C1=C(CN2CC(F)(F)C[C@@H]2CCC(=O)O)NC(c2nccs2)=N[C@H]1c1ccc(F)cc1Cl` [Example 19, 3-((S)-1-(((R)-6-(2-chloro-4-fluorophenyl)-5-(ethoxycarbonyl)-2-(thiazol-2-yl)-3,6-dihydropyrimidin-4-yl)methyl)-4,4-difluoropyrrolidin-2-yl)propanoic acid], the EC50 came to 20 nM.
Next, `COC(=O)C1=C(CN2CC(F)(F)C[C@@H]2CCC(=O)O)NC(c2nccs2)=N[C@H]1c1ccc(F)cc1Cl` [Example 20, 3-((S)-1-(((R)-6-(2-chloro-4-fluorophenyl)-5-(methoxycarbonyl)-2-(thiazol-2-yl)-3,6-dihydropyrimidin-4-yl)methyl)-4,4-difluoropyrrolidin-2-yl)propanoic acid]: 17 nM; `CCOC(=O)C1=C(CN2CC(F)(F)C[C@@H]2CCC(=O)O)NC(c2nccs2)=N[C@H]1c1ccc(Cl)cc1Cl` [Example 21, 3-((S)-1-(((R)-6-(2,4-dichlorophenyl)-5-(ethoxycarbonyl)-2-(thiazol-2-yl)-3,6-dihydropyrimidin-4-yl)methyl)-4,4-difluoropyrrolidin-2-yl)propanoic acid]: 9 nM.
Next, `COC(=O)C1=C(CN2CC(F)(F)C[C@@H]2CCC(=O)O)NC(c2nccs2)=N[C@H]1c1ccc(Cl)cc1Cl` [Example 22, 3-((S)-1-(((R)-6-(2,4-dichlorophenyl)-5-(methoxycarbonyl)-2-(thiazol-2-yl)-3,6-dihydropyrimidin-4-yl)methyl)-4,4-difluoropyrrolidin-2-yl)propanoic acid]: 11 nM.

Usually EC50 stands for the concentration that produces a half-maximal response. Low readings indicate greater potency, high ones weaker potency.

The record behind these values is US9498479B2, “Dihydropyrimidine compounds and their application in pharmaceuticals” (SUNSHINE LAKE PHARMA CO., LTD., priority 2013, dated 2016).
